Patent US11725015B2, “Macrocyclic compound and uses thereof” (President and Fellows of Harvard College, priority 2017, dated 2023)

Columns and labels:
[1] = test system: human squamous cell carcinoma of the head and neck (SCCHN) cell line FaDu; assay: FaDu growth inhibition assay; type: cell-based; conditions: 3 days incubation, CellTiter-Glo
Method: In this assay, the growth inhibitory activity of test compounds in a human squamous cell carcinoma of the head and neck (SCCHN) cell line FaDu was measured. FaDu cells were maintained in an RPMI-1640 (Wako Pure Chemical Industries, Ltd., 187-02021) medium containing 10% fetal bovine serum (FBS: Nichirei, 12D168), and penicillin and streptomycin in a 5% CO2 incubator (37° C.). To each well of a 96 well plate (Becton, Dickinson and Company, 353219), 75 μL of FaDu cell suspension adjusted to a concentration of 4×10^4 cells/mL with the culture medium was added, and the cells were incubated overnight in a 5% CO2 incubator (37° C.). On the next day, 25 μL of Compound (1) or Halichondrin B in three-fold dilution series suspended in the culture medium was added to each well, and the resultant was incubated for 3 days in a 5% CO2 incubator (37° C.). Then, cell viability was determined by CellTiter-Glo® Luminescent Cell Viability Assay (Promega) with EnVision 2103 Multilabel Reader (Perkin-Elmer, Wellesley, Mass.). Value of the wells containing cells without adding the test compounds was defined as 100% and the value of the wells containing no cells was defined as 0%. The concentration of the test compound necessary for inhibiting the cell growth by 50% (i.e., an IC50 value) was calculated, and shown in Table 1.

[2] = test system: α-SMA-positive CAFs in the FaDu subcutaneous model; assay: Effect on α-SMA-positive CAFs in the FaDu subcutaneous model in mice (Test Example 19); type: in vivo
Method: A human squamous cell carcinoma of the head and neck (SCCHN) cell line FaDu, which had been cultured in an RPMI-1640 medium containing 10% FBS, and penicillin-streptomycin (culture medium), was adjusted to a concentration of 5×10^7 cells/mL with culture medium to prepare a cell suspension. The cell suspension was inoculated in a volume of 100 μL into a subcutaneous part of a right flank of nude mice, 6 weeks of ages (CAnN.Cg-Foxnlnu/CrlCrlj, female, Charles River Laboratories Japan, Inc.). Ten days after cell inoculation, the mice were grouped such that averages of the tumor volumes were substantially equal among the groups. The experiment was conducted on groups each consisting of 5 mice. Each test compound was dissolved in DMSO and a solution was stored in the freezer before use. Immediately before the administration, the stock solution was diluted with saline. The test compound in saline was intravenously administered at 20 μg/kg, […]. Two days or 5 days after the single administration, tumor samples were collected and fixed with IHC Zinc Fixative (BD Pharmingen) at 4° C. for 24 hours. Paraffin-embedded tissues were sectioned (3 μm), mounted on positively charged slides, and air-dried. Sections were deparaffinized, conditioned and the antigens were retrieved using microwave with 1 mM EDTA at pH 6.0. Sections were blocked with 1% of BSA in TBS. Mouse anti-α-SMA monoclonal antibody conjugated with alkaline phosphatase (clone 1A4, Sigma) was applied at 5 μg/mL. Sections were incubated with the antibody for 2.5 hr. […] The area of α-SMA-positive region in the whole tumor was quantified by counting the α-SMA-positive objects using inform 2 software (PerkinElmer Inc.) Area of the tumor region was measured by assessing the hematoxylin-staining area using inform 2 software (PerkinElmer Inc.). […] A suppression rate of the α-SMA-positive area of the test compound-dosing group was calculated with the below formula: α-SMA ratio=α-SMA area of the test compound-dosing group/α-SMA area of the non-treat group

[3] = target: T1, tubulin protein purified from porcine brain (Sus scrofa, UniProt P02550+P02554); assay: Cell-free tubulin polymerization assay; type: biochemical; conditions: final concentrations 0.625-10 μmol/L
T1 construct: lyophilized tubulin protein purified from porcine brain; purchased Cytoskeleton, Inc. BK011P; host or cells: porcine brain (tissue-purified)
T1 sequence (P02554 whole entry): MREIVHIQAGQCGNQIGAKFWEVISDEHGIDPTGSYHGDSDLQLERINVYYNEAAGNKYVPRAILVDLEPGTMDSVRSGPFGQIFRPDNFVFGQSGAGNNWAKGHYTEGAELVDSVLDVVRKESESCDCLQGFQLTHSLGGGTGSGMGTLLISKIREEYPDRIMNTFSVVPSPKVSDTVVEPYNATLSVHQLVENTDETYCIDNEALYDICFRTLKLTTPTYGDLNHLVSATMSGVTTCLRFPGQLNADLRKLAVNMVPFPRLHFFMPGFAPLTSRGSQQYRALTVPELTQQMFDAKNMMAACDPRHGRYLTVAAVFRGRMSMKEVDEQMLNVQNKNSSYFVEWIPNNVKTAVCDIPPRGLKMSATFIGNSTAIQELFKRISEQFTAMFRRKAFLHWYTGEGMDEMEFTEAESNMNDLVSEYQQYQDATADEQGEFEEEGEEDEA
T1 sequence (P02550 whole entry): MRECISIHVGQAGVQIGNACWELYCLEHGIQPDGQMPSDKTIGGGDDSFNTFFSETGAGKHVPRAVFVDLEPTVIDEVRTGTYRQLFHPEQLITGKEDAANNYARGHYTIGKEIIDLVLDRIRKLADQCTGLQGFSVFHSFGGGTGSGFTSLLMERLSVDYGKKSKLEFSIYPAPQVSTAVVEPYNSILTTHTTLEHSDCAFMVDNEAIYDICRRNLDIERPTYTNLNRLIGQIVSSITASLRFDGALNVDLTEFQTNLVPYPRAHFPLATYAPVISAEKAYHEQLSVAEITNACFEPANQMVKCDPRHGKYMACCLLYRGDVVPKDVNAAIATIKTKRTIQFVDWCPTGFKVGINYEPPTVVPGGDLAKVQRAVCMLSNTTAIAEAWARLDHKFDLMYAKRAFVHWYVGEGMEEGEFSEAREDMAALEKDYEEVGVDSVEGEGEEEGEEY
Method: Tubulin Polymerization Assay kit was purchased from Cytoskeleton, Inc. (Cat. #BK011P). The kit contained 1 bottle of lyophilized tubulin protein purified from porcine brain, 3 tubes of lyophilized GTP, 2 bottles of lyophilized assay buffer, and 1 bottle of tubulin glycerol buffer. Assay buffer was prepared by dissolving the contents in 10 mL of deionized and sterilized water. This solution contained 80 mmol/L piperazine-N,N′-bis[2-ethanesulfonic acid] sesquisodium salt, 2.0 mmol/L magnesium chloride, 0.5 mmol/L ethylene glycol-bis(2-amino-ethyl ether) N,N,N′,N′-tetra-acetic acid, pH 6.9, and 10 μmol/L fluorescent reporter. The buffer was stored at −70° C. until use. […]
In the tubulin polymerization assay, reaction mixture was prepared by mixing 820 μL of assay buffer, 17.6 μL of GTP stock solution, and 600 μL of tubulin glycerol buffer. […] Fluorescence emission at 460 nm (excitation wavelength at 360 nm) was measured every 2 minutes for 90 minutes using the SpectraMax® M5e microplate reader (Molecular Devices). Tubulin polymerization was followed by fluorescence enhancement due to the incorporation of a fluorescence reporter into microtubules as polymerization occurred. […]

Structure (SMILES): C=C1C[C@@H]2CC[C@@]34C[C@H]5O[C@H]6[C@@H](O3)[C@H]3O[C@H](CC[C@@H]3O[C@H]6C5O4)CC(=O)O[C@@H]3[C@@H](C)[C@@H]4O[C@@H]5C[C@]6(C[C@@H]7O[C@]8(C[C@H](C)[C@@H]9O[C@H](CN)[C@H](O)C[C@@H]9O8)C[C@H](C)[C@@H]7O6)O[C@@H]5C[C@@H]4O[C@H]3C[C@H]3O[C@@H](CC[C@@H]1O2)C[C@@H](C)C3=C [Compound (1)]
- IC50 [1]: 0.0714 nM
- α-SMA positive area ([2]; single administration 180 μg/kg, Day 3): significantly reduced the α-SMA positive area
- α-SMA positive area ([2]; single administration 180 μg/kg, Day 6): significantly reduced the α-SMA positive area
- α-SMA positive area ([2]; single administration 60 m/kg, Day 3): significantly reduced the α-SMA positive area
- effect on tubulin polymerization [3]: inhibited tubulin polymerization in a concentration-dependent manner
